Measured values as given in the NIST ThermoML archive (doi:10.1021/je300045c).
Values joined by “and” are separate entries in the source; they are usually repeats but may differ in a detail not shown here. Equal values may be shown once.

Legend:
[1] = xn = mol fraction of the nth substance listed; settings: 358.15 K, 101 kPa, Liquid; for electrical conductivity: Alternating current cell with electrodes; for viscosity: Falling or rolling sphere viscometry; for mass density: Vibrating tube method
[2] = molar heat capacity at constant pressure; wn = mass fraction of the nth substance listed; settings: 358.15 K, 101 kPa, Liquid, Small sample (50 mg) DSC

CCCCn1cc[n+](C)c1.CS(=O)(=O)[O-] [1-butyl-3-methylimidazolium methanesulfonate] + O
Settings | electrical conductivity [S/m] | mass density [kg/m3] | molar heat capacity at constant pressure | viscosity [mPa·s]
[1], x2 = 0 | 0.805 | 1134 | – | –
[1], x2 = 0.012 | 0.821 | 1134 | – | –
[1], x2 = 0.028 | 0.84 | 1134 | – | –
[1], x2 = 0.049 | 0.871 | 1134 | – | –
[1], x2 = 0.074 | 0.907 | 1133 | – | –
[1], x2 = 0.106 | 0.955 | 1133 | – | –
[1], x2 = 0.131 | 1 | 1132 | – | –
[1], x2 = 0.14 | – | 1132 | – | –
[1], x2 = 0.147 | 1.03 | 1132 | – | –
[1], x2 = 0.156 | 1.06 | – | – | –
[1], x2 = 0.159 | – | 1131 | – | –
[1], x2 = 0.185 | 1.12 | – | – | –
[1], x2 = 0.187 | – | 1130 | – | –
[1], x2 = 0.203 | 1.14 | 1130 | – | –
[1], x2 = 0.217 | 1.2 | – | – | –
[1], x2 = 0.224 | – | 1129 | – | –
[1], x2 = 0.252 | 1.29 | – | – | –
[1], x2 = 0.27 | 1.3 | 1129 | – | –
[1], x2 = 0.271 | – | 1128 | – | –
[1], x2 = 0.306 | 1.44 | – | – | –
[1], x2 = 0.329 | – | 1126 | – | –
[1], x2 = 0.358 | 1.61 | – | – | –
[1], x2 = 0.363 | 1.59 | 1126 | – | –
[1], x2 = 0.4 | – | 1125 | – | –
[1], x2 = 0.423 | 1.87 | – | – | –
[1], x2 = 0.457 | 2 | 1124 | – | –
[1], x2 = 0.478 | – | 1122 | – | –
[1], x2 = 0.495 | 2.22 | – | – | –
[1], x2 = 0.535 | 2.46 | – | – | –
[1], x2 = 0.555 | – | 1121 | – | –
[1], x2 = 0.556 | 2.58 | 1120 | – | –
[1], x2 = 0.559 | – | 1120.7 | – | 7.514
[1], x2 = 0.61 | 3.02 | – | – | –
[1], x2 = 0.628 | – | 1118 | – | –
[1], x2 = 0.643 | 3.14 | 1116 | – | –
[1], x2 = 0.654 | – | 1114.4 | – | 5.344
[1], x2 = 0.677 | 3.71 | – | – | –
[1], x2 = 0.692 | – | 1113 | – | –
[1], x2 = 0.702 | – | 1110.3 | – | 4.549
[1], x2 = 0.744 | 4.6 | 1106 | – | –
[1], x2 = 0.749 | – | 1104.1 | – | 3.616
[1], x2 = 0.75 | 4.81 | – | – | –
[1], x2 = 0.771 | – | 1105 | – | –
[1], x2 = 0.801 | – | 1094.9 | – | 2.795
[1], x2 = 0.836 | 6.82 | 1087 | – | –
[1], x2 = 0.842 | 7.27 | – | – | –
[1], x2 = 0.848 | – | 1085 | – | –
[1], x2 = 0.852 | – | 1081.2 | – | 2.048
[1], x2 = 0.878 | 9 | – | – | –
[1], x2 = 0.886 | – | 1072 | – | –
[1], x2 = 0.9 | – | 1062.3 | – | 1.486
[1], x2 = 0.925 | – | 1048.2 | – | 1.149
[1], x2 = 0.95 | – | 1029.7 | – | 0.834
[1], x2 = 0.975 | – | 1003.9 | – | 0.547
[2], w2 = 0.002 | – | – | 1.768 J/K/mol | –
[2], w2 = 0.014 | – | – | 1.793 J/K/mol | –
[2], w2 = 0.032 | – | – | 1.996 J/K/mol and 2.027 J/K/mol | –
[2], w2 = 0.087 | – | – | 2.267 J/K/mol | –
[2], w2 = 0.097 | – | – | 2.252 J/K/mol | –
[2], w2 = 0.15 | – | – | 2.244 J/K/mol | –
[2], w2 = 0.233 | – | – | 2.448 J/K/mol | –
[2], w2 = 0.429 | – | – | 2.926 J/K/mol | –
